From patent US20260265199A1, “CRYSTALLINE FORMS OF (R)-2-AMINO-5-(4-(2-(3,5-DIFLUOROPHENYL)-2-HYDROXYACETAMIDO)-2-METHYLPHENYL)-N-ISOPROPYLNICOTINAMIDE AND METHODS FOR USING THE SAME” (HIBERCELL, INC., priority 2023, published 2026)
Where a name gives a salt, the structure may show the parent alone. Read-outs that look alike come from different tables or passages of the source.

Legend:
Type in all cases: physicochemical
[1] = Solubility of mono-fumarate Form A estimated by solvent addition, visual assessment
From the text: The solubility of Form A of the mono-fumarate salt of the compound of formula (I) was estimated using solvent addition method via visual assessment of the samples.

[2] = Slurry study of Form A of the mono-fumarate salt (XRPD of solids)
Protocol: XRPD patterns of samples were collected using with an X-ray diffractometer (Bruker D8 advance). The system was equipped with LynxEye detector. Samples were scanned from 3 to 40° 2θ, at a step size 0.02° 2θ. The tube voltage and current were 40 KV and 40 mA, respectively.
Slurry studies were conducted using 12 solvents at RT or 50° C. Solid samples were collected by filtration and analyzed by XRPD at a specific time.

[3] = Variable temperature study of Form B (cycling DSC, VT-XRPD)
Protocol: XRPD patterns were collected with a PANalytical X'Pert PRO MPD diffractometer using an incident beam of Cu Kα radiation produced using a long, fine-focus source and a nickel filter. The diffractometer was configured using the symmetric Bragg-Brentano geometry. Data were collected and analyzed using Data Collector software v. 5.5. Prior to the analysis, a silicon specimen (NIST SRM 640e) was analyzed to verify the observed position of the Si 111 peak is consistent with the NIST-certified position. A specimen of the sample was packed in a nickel-coated copper well. Anti-scatter slits (SS) were used to minimize the background generated by air scattering. Soller slits for the incident and diffracted beams were used to minimize broadening from axial divergence. Diffraction patterns were collected using a scanning position-sensitive detector (X'Celerator) located 240 mm from the sample. The data acquisition parameters for each pattern are disclosed, including the divergence slit (DS) and the incident-beam SS.
An Anton Paar TTK 450 stage was used to collect in-situ XRPD patterns as a function of temperature. The sample was heated with a resistance heater located directly under the sample holder, and the temperature was monitored with a platinum-100 resistance sensor located in the specimen holder. The heater was powered and controlled by an Anton Paar TCU 100 interfaced with Data Collector.
DSC was performed using a Mettler-Toledo DSC3+ differential scanning calorimeter. A tau lag adjustment was performed with indium, tin, and zinc. The temperature and enthalpy were adjusted with octane, phenyl salicylate, indium, tin, and zinc. The adjustment was then verified with octane, phenyl salicylate, indium, tin, and zinc. The sample was placed into a hermetically sealed aluminum DSC pan, and the weight was accurately recorded. The pan was then inserted into the DSC cell. A weighed aluminum pan configured as the sample pan was placed on the reference side of the cell. The pan lid was pierced prior to sample analysis. Samples were analyzed from −30° C. to 250° C. @ 10°/min. The cyclic DSC method heated from −30° C. to 100° C., returned to −30° C., then heated to 250° C. at 10°/min.
The thermal events associated with heating Form B, prepared according to Example 30, were further investigated by cycling DSC and variable temperature XRPD (FIG. 33 and FIG. 34, respectively). […] This phase transition was confirmed by VT-XRPD (see the diffraction pattern obtained at 100° C. in FIG. 34). During the first DSC cooling cycle, an exotherm at approximately 35° C. was observed. […] During the final DSC heating cycle, Form B first undergoes a phase transition to Material F at approximately 67° C. (endotherm). […] (endotherm) and immediately recrystallize as Form A (exotherm onset at approximately 164° C.). […] Determining which solid form was obtained after recrystallization was confirmed by VT-XRPD (the pattern obtained at approximately 175° C., FIG. 34).
It is believed that this solid state behavior can be explained due to the relative stability of Form B and Material F is reversed in passing the transition temperature. For enantiotropic systems where hysteresis is minimal within the timescale measured, the transition temperature must lie between the onset temperatures of the observed endotherm and exotherm. Therefore, a transition temperature of ~49° C. was estimated from the thermogram with the use of the lever rule.
The XRPD acquisition parameters used to collect the VT-XRPD data presented in Table 33 are as follows: X-ray Tube: Cu (1.54059 Å); voltage: 45 kV; amperage: 40 mA; scan range: 3.50-29.99° 2θ; step size: 0.017° 2θ; scan speed: 1.7° per minute; slit: DS: fixed slit ¼°; SS: fixed slit: ½°; revolution time: 0.0 null; and mode: reflection. The XRPD data collection times for the experiment are specified in Table 33.

[4] = Physical stability of Form C at ambient conditions (XRPD)
Protocol: The initial samples were then analyzed by XRPD. Thereafter, the vials were sealed and the samples were allowed to sit at ambient conditions for 9, 13, or 25 days (as designated in Table 35). The samples were then reanalyzed by XRPD.

For `Cc1cc(NC(=O)[C@H](O)c2cc(F)cc(F)c2)ccc1-c1cnc(N)c(C(=O)NC(C)C)c1` [Form A of the mono-fumarate salt, (R)-2-amino-5-(4-(2-(3,5-difluorophenyl)-2-hydroxyacetamido)-2-methylphenyl)-N-isopropylnicotinamide], the solubility ([1]; EtOAc, organic solvent or mixture, thermodynamic from solid, EtOAc, read-out: Solubility) was greater than 3 mg/mL, the solubility ([1]; EtOH, organic solvent or mixture, thermodynamic from solid, EtOH, read-out: Solubility) was greater than 22.5 mg/mL and the solubility ([1]; IPA, organic solvent or mixture, thermodynamic from solid, IPA, read-out: Solubility) was greater than 23.4 mg/mL. The solubility ([1]; IPAc, organic solvent or mixture, thermodynamic from solid, IPAc, read-out: Solubility) was greater than 2.1 mg/mL, the solubility ([1]; MEK, organic solvent or mixture, thermodynamic from solid, MEK, read-out: Solubility) was greater than 11.7 mg/mL and the solubility ([1]; MTBE, organic solvent or mixture, thermodynamic from solid, MTBE, read-out: Solubility) was greater than 4.2 mg/mL. The solubility ([1]; MeCN, organic solvent or mixture, thermodynamic from solid, MeCN, read-out: Solubility) was greater than 2.2 mg/mL, the solubility ([1]; MeOH) was greater than 53.2 mg/mL and the solubility ([1]; MeOH, organic solvent or mixture, thermodynamic from solid, MeOH, read-out: Solubility) was greater than 50 mg/mL. For the same molecule, the solubility ([1]; THF) was greater than 52.6 mg/mL, the solubility ([1]; THF, organic solvent or mixture, thermodynamic from solid, THF, read-out: Solubility) was greater than 50 mg/mL and the solubility ([1]; acetone, organic solvent or mixture, thermodynamic from solid, Acetone, read-out: Solubility) was greater than 13.4 mg/mL. The solubility ([1]; heptane, organic solvent or mixture, thermodynamic from solid, Heptane, read-out: Solubility) was less than 1 mg/mL, the solubility ([1]; isobutanol, organic solvent or mixture, thermodynamic from solid, Isobutanol, read-out: Solubility) was greater than 11.1 mg/mL and the solubility ([1]; toluene, organic solvent or mixture, thermodynamic from solid, Toluene, read-out: Solubility) was less than 1.1 mg/mL. For the same molecule, the solubility ([1]; water, thermodynamic from solid, Water, read-out: Solubility) was less than 1.1 mg/mL, the “XRPD result after slurry” value ([2]; 2-Butanone, 50° C., 2 days) was “Mono-fumarate Form A” and the “XRPD result after slurry” value ([2]; 2-Butanone, room temperature, 5 days) was “Mono-fumarate Form A”. The “XRPD result after slurry” value ([2]; Acetone, 50° C., 2 days) was “Mono-fumarate Form A”, the “XRPD result after slurry” value ([2]; Acetone, room temperature, 5 days) was “Mono-fumarate Form A” and the “XRPD result after slurry” value ([2]; EtOAc, 50° C., 2 days) was “Low crystallinity”. The “XRPD result after slurry” value ([2]; EtOAc, room temperature, 5 days) was “Low crystallinity”, the “XRPD result after slurry” value ([2]; EtOH, room temperature, 5 days) was “Solid” and the “XRPD result after slurry” value ([2]; Heptane, 50° C., 2 days) was “Mono-fumarate Form A”. For the same molecule, the “XRPD result after slurry” value ([2]; Heptane, room temperature, 5 days) was “Mono-fumarate Form A”, the “XRPD result after slurry” value ([2]; IPA, 50° C., 2 days) was “Hemi-fumarate Form A” and the “XRPD result after slurry” value ([2]; IPA, room temperature, 5 days) was “Hemi-fumarate Form A”. For the same molecule, the “XRPD result after slurry” value ([2]; IPAc, 50° C., 2 days) was “Hemi-fumarate Form A”, the “XRPD result after slurry” value ([2]; IPAc, room temperature, 5 days) was “Low crystallinity” and the “XRPD result after slurry” value ([2]; Isobutanol, 50° C., 2 days) was “Hemi-fumarate Form A”. For the same molecule, the “XRPD result after slurry” value ([2]; Isobutanol, room temperature, 5 days) was “Hemi-fumarate Form A”, the “XRPD result after slurry” value ([2]; MTBE, 50° C., 2 days) was “Hemi-fumarate Form A” and the “XRPD result after slurry” value ([2]; MTBE, room temperature, 5 days) was “Low crystallinity”. For the same molecule, the “XRPD result after slurry” value ([2]; MeCN, room temperature, 5 days) was “Low crystallinity”, the “XRPD result after slurry” value ([2]; Toluene, 50° C., 2 days) was “Hemi-fumarate Form A” and the “XRPD result after slurry” value ([2]; Toluene, room temperature, 5 days) was “Low crystallinity”. The “XRPD result after slurry” value ([2]; Water, 50° C., 2 days) was “Alternative pattern” and the “XRPD result after slurry” value ([2]; Water, room temperature, 5 days) was “Alternative pattern”.
For `Cc1cc(NC(=O)[C@H](O)c2cc(F)cc(F)c2)ccc1-c1cnc(N)c(C(=O)NC(C)C)c1` [Form B, (R)-2-amino-5-(4-(2-(3,5-difluorophenyl)-2-hydroxyacetamido)-2-methylphenyl)-N-isopropylnicotinamide], the “Result (VT-XRPD)” value ([3]; 30° C., 1st scan in table order) was “Form B”, the “Result (VT-XRPD)” value ([3]; 30° C., 4th scan in table order) was “Material F” and the “Result (VT-XRPD)” value ([3]; 30° C., 8th scan in table order) was “Form A”. For the same molecule, the “Result (VT-XRPD)” value ([3]; 75° C., 2nd scan in table order) was “Form B”, the “Result (VT-XRPD)” value ([3]; 75° C., 5th scan in table order) was “Material F” and the “Result (VT-XRPD)” value ([3]; 100° C., 3rd scan in table order) was “Material F”. For the same molecule, the “Result (VT-XRPD)” value ([3]; 100° C., 6th scan in table order) was “Material F”, the “Result (VT-XRPD)” value ([3]; 175° C., 7th scan in table order) was “Form A^1” and the “Relative stability of Form B vs Material F (enantiotropes)” value ([3]; below the transition temperature) was “more stable, relative to Material F, below the transition temperature”.
For `Cc1cc(NC(=O)[C@H](O)c2cc(F)cc(F)c2)ccc1-c1cnc(N)c(C(=O)NC(C)C)c1` [Form C, (R)-2-amino-5-(4-(2-(3,5-difluorophenyl)-2-hydroxyacetamido)-2-methylphenyl)-N-isopropylnicotinamide], the “Result (XRPD)” value ([4]; Acetone, ambient conditions, stored for 13 days) was “Form B (FIG. 38B)”, the “Result (XRPD)” value ([4]; Acetone, initial sample) was “Form B + Form C” and the “Result (XRPD)” value ([4]; MeCN, ambient conditions, stored for 25 days) was “Form B (FIG. 38D)”. For the same molecule, the “Result (XRPD)” value ([4]; MeCN, initial sample) was “Form C (FIG. 38C)”, the “Result (XRPD)” value ([4]; MeCN/water, ambient conditions, stored for 9 days) was “Form C + Form B” and the “Result (XRPD)” value ([4]; MeCN/water, initial sample) was “Form C (FIG. 38E)”. The “Physical stability of Form C (XRPD)” value ([4]; ambient conditions, irrespective of solvent system used to prepare Form C) was “desolvates and either partially converts or fully converts to Form B within days”, the “Solid form (XRPD) after storage” value ([4]; sample obtained from acetonitrile and water, ambient conditions, 9 days) was “mixture of Form B and Form C” and the “Solid form (XRPD) after storage” value ([4]; sample obtained from acetonitrile, ambient conditions, 25 days) was “Form B”.
